Test results reported in US20260308116A1, “TERTIARY AMINE COMPOUNDS CONTAINING AN ALKYNE OR AN AZIDE MOIETY AND THEIR USE” (INSTITUT NATIONAL DE LA SANTÉ ET DE LA RECHERCHE MÉDICALE, priority 2023, published 2026).

Columns and labels:
HeLa cells [1] = experiment: Reverse alkaline comet assay (ICL formation); settings: for visual comet score in the absence of IR: no IR, 2C
[2] = tested on: PHA-stimulated lymphocytes from FA patients; experiment: Repair of lesions in FA patient lymphocytes; settings: both FA patients, 48 h post treatment
[3] = tested on: fibroblast cells from XP patients (XP1, XP2); experiment: Repair of lesions in XP patient fibroblasts
[4] = tested on: primary fibroblast cells from FA patients (FA1, FA2); experiment: Repair of lesions in FA patient primary fibroblasts; settings: FA1, FA2 vs C3, C4 fibroblasts; FIG. 9B
[5] = tested on: cells from subject C3 (non-XP); experiment: Repair of lesions in control (non-XP) fibroblasts; settings: subject C3, 48 h; FIG. 11B
HeLa cells [6] = experiment: Clonogenic survival assay; settings: for number of colonies formed (clonogenic survival): 1 h treatment, colonies after 15 days, parent vs click compound, FIG. 1A, 1B
HeLa FANCD2 KO cells [7] = experiment: Dual parameter plot assay (click / propidium iodide); settings: FIG. 7A left panel
HeLa FANCD2 KO cells [8] = experiment: Sensitivity of FANCD2-deficient cells (IC50 and clonogenic survival); format: cell-based; settings: FIG. 2E, 2F
Description: (§1) Data are shown as mean±s.e.m. of 3 independent experiments, ns (not significant), *p<0.05, **p<0.01 and ***p<0.001 according to two-way ANOVA followed by Šidák multiple range test (A) or by Tukey multiple range test (F) or to one-way ANOVA followed by Tukey's multiple comparison test (B, E, G) and Mann-Whitney test (C).
(§2) 1000 Hela cells were seeded in triplicate in 10 cm dishes and allowed to attach for 4 hours before treatment for 1 hour with the indicated drugs. After 15 days, cells were washed, fixed and stained with crystal violet (Sigma). The number of colonies with >100 cells were counted. Results were normalized to plating efficiency. For each genotype, cell viability of untreated cells was defined as 100%. Data are represented as mean±SD from three independent experiments.
(§3) In antiproliferative assays, compounds were assayed for their growth inhibiting activity towards the described cancer cell lines using the CellTiter-Glo Luminesent Cell Viability Assay as described by the manufacturer (Promega Corporation). […]

HeLa ERCC1 KO cells = experiment: Sensitivity of ERCC1-deficient cells (IC50 and clonogenic survival); format: cell-based; settings: FIG. 2E, 2F
Description: as §1, §2, §3

HeLa cells [9] = experiment: Repair of lesions in HeLa cells, click reaction and flow cytometry; settings: WT HeLa, 48 h
HeLa FANCD2 KO cells [10] = experiment: Lesion repair in cells synchronized at G1/S boundary (double thymidine block); format: cell-based; settings: FIG. 7C, 8B
Description: (§4) FIG. 7: Analysis of the FA-dependent melphalan-ICL repair during the cell cycle. (A) Dual parameter plot of the click-mono-melphalan or melphalan subjected to the Alexa 647-click reaction with propidium iodide co-staining. Lesions repair is evaluated in HeLa and HeLa FANCD2 KO cells by flow cytometry at different time post treatment. The percentage of G1 phase cells is indicated in the left corner (black), S phase cells in the center (yellow) and G2 phase in the right corner (red); (B) HeLa cells were arrested in G1 phase using a double thymidine block. Cultures harvested at various time points after release were stained with propidium iodide and analyzed using flow cytometry; (C) Quantification of fluorescence intensity in HeLa WT or HeLa FANCD2 KO treated with click-melphalan clicked with Alexa Fluor 647 azide at the indicated time post treatment. Data are shown as mean±s.e.m. of 3 independent experiments. *p<0.05 according to two-way ANOVA followed by Šidák multiple range test.
(§5) FIG. 8: (A) HeLa WT and FANCD2 KO cells were synchronized at the G1/S boundary, treated or not with click-melphalan before release into drug free medium. Cell cycle profile was monitored by propidium iodide staining; (B) Quantification of fluorescence intensity in HeLa WT and FANCD2 KO cell lines treated with click-melphalan at indicated times post treatment. […]

HeLa cells [11] = experiment: as above; format: cell-based; settings: FIG. 7C, 8B
Description: as §4, §5

DNA = experiment: Detection of click agents in cells by microscopy (Alexa Fluor 647 azide); settings: HeLa, 0.5 μM; FIG. 3C
HeLa cells [12] = experiment: Detection of click agents in cells by flow cytometry; format: cell-based; settings: FIG. 3D
Description: HeLa, Jurkat and FA or XP primary cells (10^6 per dish) were seeded into 10 cm culture dishes and incubated overnight in culture medium. The following day, samples were treated with 0.5 μM click-Melphalan (Example 1), 0.5 μM click-MonoMelphalan (Example 2) or DMSO vehicle for 1 h. After treatment, cells were PBS-washed and released into medium. At designated time points, samples were harvested and fixed in EtOH 70%. Fixed cells where incubated in a click reaction buffer (50 μM Alexa fluor 647 azide, 1 mM copper (II) sulfate, 100 mM sodium ascorbate, 100 mM Tris-HCl pH 8.0) for 30 min at room temperature and then washed extensively using 3×5% FBS in PBS rinses to remove unbound reporter. Samples were stained with 5 μg/mL propidium iodide in 3% FBS in PBS and then analyzed using an LSR Fortessa flow cytometer (BD Biosciences, San Jose, CA). Ten thousand events were collected for each sample and gated using forward-versus side-scatter to eliminate cell debris and doublets. The data were analyzed using FlowJo software version 7.6.5 (Tree Star, San Carlos, CA).

HeLa FANCD2 KO cells [13] = experiment: Repair of lesions in HeLa FANCD2 KO cells, click reaction and flow cytometry; settings: HeLa FANCD2 KO
BRCA2 KO RPE1 cell line = experiment: Repair of lesions in BRCA2-deficient cells, click reaction and flow cytometry; format: cell-based; settings: BRCA2-deficient cells; FIG. 6D, 6F
FANCD2 = experiment: Detection of FANCD2 ubiquitination; settings: FANCD2 mono ubiquitination by western blot, HeLa; FIG. 3B
HeLa cells [14] = experiment: Antiproliferative assay (CellTiter-Glo), IC50; format: cell-based; settings: 72 h, 0.032-50 μM, FIG. 2B
Description: as §1
In antiproliferative assays, compounds were assayed for their growth inhibiting activity towards the described cancer cell lines using the CellTiter-Glo Luminesent Cell Viability Assay as described by the manufacturer (Promega Corporation). Briefly, 5.10^3 cells were plated onto 96 well-plates (white with clear bottom (3610, Corning Costar) with 90 μL media per well, and incubated overnight. Compounds were added at different concentrations (varying from 50 to 0.032 μM) to each well and cell cultures were incubated at 37° C. during 72 h. Vehicle (DMSO) was used as control and all compounds were tested in constant percentage of DMSO (0.5%). After addition of 50 μL CellTiter GLO, luminescence was measured using a Centro luminometer LB960 (Berthold). Dose-response curves were generated and effective dose 50 values (EC50) were calculated using nonlinear regression analysis (Graph Pad Prism).

HeLa cells [15] = experiment: Detection of G2 arrest by flow cytometry; settings: FANCD2, γH2AX, G2 arrest, p53 and caspase taken together

In the case of N[C@@H](Cc1ccc(N(CCO)CCCl)cc1)C(=O)O [mono-melphalan, (S)-2-Amino-3-(4-((2-chloroethyl) (2-hydroxyethyl)amino)phenyl)propanoic acid], the “visual comet score in the absence of IR” value (HeLa cells [1]; FIG. 1C, 1D) is reported as “neither Melphalan, click-Melphalan (Example 1), mono-melphalan (Comparative Example 1) nor click-mono-melphalan (Example 2) generated a visual comet score beyond the vehicle-treated control”, the “repair of lesions in PHA-stimulated lymphocytes” value [2] is reported as “able to repair mono-melphalan” and the “cells still positive for mono-melphalan” value ([3]; XP1 and XP2, 48 h, FIG. 11B) is reported as ~100%. The “persistence of mono-melphalan-induced lesions” value ([3]; XP compared to non-XP cells, up to 48 h, FIG. 11A, 11B) was “persisted in the XP patient cells up to 48 hours”, the “reduction of signal during repair of lesions, FA vs non-FA cells” value [4] was “No significant differences in the reduction of signal” and the “cells still positive for mono-melphalan” value [5] was ~0%. For the same molecule, the “number of colonies formed (clonogenic survival)” value (HeLa cells [6]) was “similarly reduces the number of colonies formed with no significative differences”, the “dependence of the repair delay on DNA content” value (HeLa FANCD2 KO cells [7]) was “observed in all cells independently of their DNA content” and the “repair of DNA lesions at 24 h” value (HeLa FANCD2 KO cells [7]; HeLa FANCD2 KO compared to HeLa, 24 h) was “slightly delayed in HeLa FANCD2 KO at 24 h compared to HeLa cells”.
With C#CCNC(=O)[C@@H](N)Cc1ccc(N(CCCl)CCCl)cc1 [click-melphalan, (S)-2-amino-3-(4-(bis(2-chloroethyl)amino)phenyl)-N-(prop-2-yn-1-yl)propanamide] the “IR-induced tail moment after pre-treatment” value (HeLa cells [1]; 30 μM melphalan or click-melphalan, 60 min, then IR (10 Gy), FIG. 1C, 1D) was “large decrease in the IR-induced tail moment”, the “reversal of tail moment, Melphalan vs click-Melphalan” value (HeLa cells [1]; 30 μM, 60 min, then IR (10 Gy)) was “no significant difference was observed between Melphalan or click-Melphalan” and the “visual comet score in the absence of IR” value (HeLa cells [1]; FIG. 1C, 1D) was “neither Melphalan, click-Melphalan (Example 1), mono-melphalan (Comparative Example 1) nor click-mono-melphalan (Example 2) generated a visual comet score beyond the vehicle-treated control”. The “sensitivity of FANCD2-deficient cells” value (HeLa FANCD2 KO cells [8]) was “sensitive to click-melphalan”, the “sensitivity of ERCC1-deficient cells” value (HeLa ERCC1 KO cells) was “sensitive to click-melphalan” and the “repair of melphalan-induced lesions after 48 hours” value (HeLa cells [9]) was “most of WT HeLa cells have repaired melphalan-induced lesions after 48 hours”. For the same molecule, the “repair of lesions 10 h after release in S phase” value (HeLa FANCD2 KO cells [10]) was “no significant repair”, the “lesions repaired 10 h after release in S phase” value (HeLa cells [11]) was “around 50%” and the “fluorescence in cells after click reaction” value (DNA) was “fluorescence could be detected in cells”. For the same molecule, the “red fluorescent staining profile vs DNA content” value (DNA) was “essentially the same staining pattern as the DNA content”, the “concentration from which a fluorescent signal was detectable” value (HeLa cells [12]) was ≥ 0.5 µM and the “concentration up to which the fluorescent signal increases” value (HeLa cells [12]) was “up to 2 μM”. The “effect of time of treatment on level of fluorescence” value (HeLa cells [12]) was “Extending the time of treatment increases the level of fluorescence”, the “number of colonies formed (clonogenic survival)” value (HeLa cells [6]) was “similarly reduces the number of colonies formed with no significative differences” and the “difference in toxicity between Melphalan and click-Melphalan” value (HeLa cells [6]; clonogenic assay) was “absence of differences in toxicity between Melphalan and click-Melphalan”. For the same molecule, the “cells positive for melphalan” value (HeLa FANCD2 KO cells [13]; 48 h) was “all HeLa FANCD2 KO cells remained positive to melphalan”, the median fluorescence intensity (HeLa FANCD2 KO cells [13]; click-melphalan, FIG. 6B) was “no reduction of the median fluorescence intensity” and the “repair of click-melphalan-induced lesions” value (BRCA2 KO RPE1 cell line) was “strong defect in the repair”. For the same molecule, the “minimum concentration required to detect a robust activation of the ICL repair pathway” value (FANCD2) was 0.5 µM, the “IC50 (parent vs click compound)” value (HeLa cells [14]) was “further confirmed by the measurement of IC50 activity” and the “overall biological response, melphalan vs click-melphalan” value (HeLa cells [15]) was “equivalent biological response”.
